Laboratory results from article PMC10692362 (Acta Pharmaceutica Sinica. B, 2023).

Tests used:
Assay type in all cases: cell-based
[1] = molecular target: T1, ERα (Homo sapiens, UniProt P03372); assay: Immunoblot analysis of ERα degradation in LCC-2 cells; settings: 5 μmol/L over 12 h
T1 sequence (P03372 1-595): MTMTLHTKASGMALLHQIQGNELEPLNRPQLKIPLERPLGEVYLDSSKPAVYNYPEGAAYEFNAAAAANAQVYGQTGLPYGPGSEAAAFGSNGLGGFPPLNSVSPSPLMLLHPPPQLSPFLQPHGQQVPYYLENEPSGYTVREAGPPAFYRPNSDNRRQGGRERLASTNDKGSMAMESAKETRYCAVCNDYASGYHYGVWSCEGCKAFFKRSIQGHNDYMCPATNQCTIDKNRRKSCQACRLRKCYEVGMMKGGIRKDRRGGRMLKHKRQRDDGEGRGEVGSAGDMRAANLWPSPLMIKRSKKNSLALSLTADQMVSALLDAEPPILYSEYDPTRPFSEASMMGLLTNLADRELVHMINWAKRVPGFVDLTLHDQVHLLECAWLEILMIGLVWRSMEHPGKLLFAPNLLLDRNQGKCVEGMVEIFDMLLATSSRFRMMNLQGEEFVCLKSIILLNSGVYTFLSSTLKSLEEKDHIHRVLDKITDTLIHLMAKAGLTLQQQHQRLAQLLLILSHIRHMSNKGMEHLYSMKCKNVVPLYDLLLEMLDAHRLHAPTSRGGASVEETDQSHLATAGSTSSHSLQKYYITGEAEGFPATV

[2] = molecular target: T1, ERα; assay: Immunoblot analysis of ERα degradation in MCF-7 cells
[3] = molecular target: T1, ERα; assay: Immunoblot analysis of ERα degradation in T-47D cells; settings: 5 μmol/L over 12 h

Structure (SMILES): CC(C)=CC(=O)Nc1ccc(C2=C(c3ccc(O)cc3)C3OC2CC3S(=O)(=O)N(CC(F)(F)F)c2ccc(O)cc2)cc1 (centres unmarked) [Compound 29c, N-(4-(3-(4-Hydroxyphenyl)-5-(N-(4-hydroxyphenyl)-N-(2,2,2-trifluoroethyl)sulfamoyl)-7-oxabicyclo[2.2.1]hept-2-en-2-yl)phenyl)-3-methylbut-2-enamide]
- ERα degradation time course, LCC-2 [1]: completely degraded
- ERα degradation time course, MCF-7 ([2]; 5 μmol/L over 24 h): completely degraded
- ERα degradation (immunoblot) at 1 μmol/L ([2]; MCF-7 cells, 1 μmol/L): efficient ability to degrade ERα
- ERα degradation (immunoblot) ([2]; MCF-7 cells, 1 or 5 μmol/L): effective in inducing ERα degradation
- ERα degradation time course, T-47D [3]: completely degraded
